Experimental data from BindingDB's records for doi:10.1021/jm061242y (Elan Pharmaceuticals, 2007).

Target: Beta-secretase 1 (Homo sapiens, UniProt P56817)
Experiment: BACE Enzyme Inhibition Assay
Details: pH 4.8; 37 °C
Experimental: Beta-cleavage ELISA assays were carried out in reaction buffer containing enzyme, substrate MBP-C125, and test compounds. Generated beta-cleaved product was detected using biotinylated Sw192 or biotinyated Wt192 as specific reporter antibodies and quantitated against the appropriate MBP-C125 standard.

Sequence of Beta-secretase 1 (P56817 whole entry): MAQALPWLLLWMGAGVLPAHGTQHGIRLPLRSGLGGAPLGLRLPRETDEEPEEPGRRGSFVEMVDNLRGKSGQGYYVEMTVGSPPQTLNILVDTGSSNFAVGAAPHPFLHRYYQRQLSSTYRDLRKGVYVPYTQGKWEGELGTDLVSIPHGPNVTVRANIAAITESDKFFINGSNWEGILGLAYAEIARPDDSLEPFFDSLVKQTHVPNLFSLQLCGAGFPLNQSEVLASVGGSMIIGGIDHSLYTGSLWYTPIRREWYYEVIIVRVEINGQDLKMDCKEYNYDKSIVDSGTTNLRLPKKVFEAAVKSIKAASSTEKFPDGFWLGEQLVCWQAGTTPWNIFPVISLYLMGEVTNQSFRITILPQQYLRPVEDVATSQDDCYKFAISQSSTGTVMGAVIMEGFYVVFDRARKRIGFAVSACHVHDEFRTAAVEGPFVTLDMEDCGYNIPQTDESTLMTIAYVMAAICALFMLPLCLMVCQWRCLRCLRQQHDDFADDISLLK

IC50 [µM]	Compound
0.03	CCCN(CCC)C(=O)c1cccc(C(=O)N[C@@H](Cc2cc(F)cc(F)c2)[C@@H](O)C[C@@H](C)C(=O)NCC(C)C)c1
68	CCCN(CCC)C(=O)c1cccc(C(=O)N[C@@H](Cc2cc(F)cc(F)c2)[C@@H](O)CN[C@@H](C)C(=O)NCC(C)C)c1 [N-[(1S,2S)-1-(3,5-difluorobenzyl)-2-hydroxy-3-({(1S)-1-methyl-2-[(2-methylpropyl)amino]-2-oxoethyl}amino)propyl]-N,N-dipropylbenzene-1,3-dicarboxamide]
